# According to US7867747B2, “Fibrinolytic metalloprotease and composition comprising the same” (priority 2006, dated 2011):
# Where a name gives a salt, the structure may show the parent alone. Read-outs that look alike come from different tables or passages of the source.
# B1: recombinant protease: Zinc-dependent fibrinolytic metalloprotease, 359 amino acids (SEQ ID NO:2), about 39 kDa, from deep-sea sediment metagenome, expressed in E. coli, purified by chitin affinity … (protein)
# chain: MEPEPIKTCTVLENPGYQPIHAPTDVSPQPVLAAMEAVPVPTPPPTVDAVMLFRKKWRDGKILRVHFMDGDPDVHRKVEEVAHTWSRHANVRFKFVDDPAADIRISFTQPGSWSYLGTDALRIARSQSTMNFGWLTPRSPDSEYNRVVIHEFGHALGLVHEHQNPDNGIPWNKPAVYEYYSGPPNNWSKEQVDTNLFQQYSEDQVRFTGFDRESIMLYPIPNEFTVGDFEVGWNRDLSADDKEFIGRMYPKPANELIVDDPPRASEISRYGEIDTYTFLVTQKGSYRIETDGRTDLVMLLYGPEDDTKLIAADDDSGRRLNPRITEELDWGKYTVRLQHFSQRQTGKYAVGVYRDDAAE
# modifications: Protein sequence of coding metalloprotease ES6349
# Experiments:
# Assay type in all cases: biochemical
# [1] = tested on: zinc-dependent metalloprotease (purified recombinant enzyme)
# azocasein [2] = test: Protease activity assay, release of acid-soluble material from azocasein; settings: 50 mM Tris-HCl pH 7.0, 50° C., 1 h, by purification step
# Description: Protease activity was determined by measuring the release of acid-soluble material from azocasein (Sigma, USA) (Windle, H. J. P. et al., Infect. Immun. Vol. 65, pp 3132-3137, 1997).
# (§1) Specifically, all assays were conducted in a 50 mM Tris-HCl (pH 7.0) buffer. Enzyme samples (100 μl) obtained in Example 2 were added to 100 μl of 1% (w/v) azocasein and the reaction mixture was incubated at 50° C. for 1 h and terminated by the addition of 400 μl of 10% (w/v) trichloroacetic acid. The precipitated protein was removed by centrifugation (12,000×g, 5 min), and the resulting supernatant was transferred to a clean tube containing 700 μl of 525 mM NaOH. Absorbance was measured at 442 nm.
# One unit of protease activity was defined as an amount required for producing enough acid-soluble material from azocasein to yield absorbance of 0.1 at 442 nm, following 1 h incubation at 50° C.
# azocasein [3] = test: Effects of temperature and pH on enzyme activity (azocasein assay)
# Description: as §1
# The optimal temperature for protease activity was examined in the buffer used in the standard assay at various temperatures. The values on the ordinate are shown as percentages of the enzyme activity (100%) observed at 50° C.
# The optimal pH for the protease activity was determined in various buffers at 50° C. The buffers used were sodium acetate buffers (open rectangles, pH 5.0-6.0), Tris-HCl buffers (open triangles, pH 6.0-8.0) and glycine-NaOH buffers (open circles, pH 8.0-9.0).
# The values on the ordinate are shown as percentages of the enzyme activity (100%) observed at pH 7.0. […] The optimal pH for the activity of protease was 7.0 (FIG. 3B).
# [4] = tested on: fibrin (human fibrinogen clotted with human thrombin); test: Fibrinolytic assay, hydrolysis of fibrin clots analysed by SDS-PAGE; settings: 37° C.
# Description: Fibrinolytic activity was determined using the method described by Datta et al. (Datta, et al., Arch. Biochem. Biophys. Vol. 317, pp 365-373, 1995) with minor modifications.
# Specifically, 10 μl of 1% human fibrinogen (Sigma, USA) solution (prepared in a 20 mM Tris/HCl (pH 7.4) buffer) was added to human thrombin (0.05 NIH unit, Sigma, USA), and then allowed to stand for 1 h at room temperature. […] The hydrolysis of fibrin by the enzyme was analyzed by SDS-PAGE (FIG. 4). 5 μl each of reaction solutions was obtained at various time intervals and analyzed using an 11% SDS-PAGE gel.
# [5] = 1 mM, pre-incubation 25° C. 30 min, 50 mM Tris-HCl pH 7.0, no addition = 100
molecule,measurement,setting,value
O=S(=O)([O-])[O-].[Cu+2] [CuSO4],Relative activity,[1]; [5],100%
"O=S(=O)(F)Cc1ccccc1 [PMSF, phenylmethylsulfonyl fluoride]",effect on enzyme activity (in words),"[1]; 1 mM, as shown in Table 2",no influence
same,Relative activity,[1]; [5],104%
"O=C(O)CN(CCOCCOCCN(CC(=O)O)CC(=O)O)CC(=O)O [EGTA, ethylene glycol-bis(2-aminoethylether)-N,N,N′,N′-tetraacetic acid]",effect on enzyme activity (in words),"[1]; 1 mM, as shown in Table 2",inhibited
same,Relative activity,[1]; [5],21%
"O=C(O)CN(CCN(CC(=O)O)CC(=O)O)CC(=O)O [EDTA, ethylenediaminetetraacetic acid]",effect on enzyme activity (in words),[1],inhibited
same,Relative activity,[1]; pH 7,27%
[Cl-].[Cl-].[Co+2] [CoCl2],effect on enzyme activity (in words),[1],enhanced
same,Relative activity,[1]; 1 mM,280%
[Ca+2].[Cl-].[Cl-] [CaCl2],effect on enzyme activity (in words),"[1]; 1 mM, as shown in Table 2",enhanced
same,Relative activity,[1]; [5],200%
O=S(=O)([O-])[O-].[Ni+2] [NiSO4],effect on enzyme activity (in words),"[1]; 1 mM, as shown in Table 2",enhanced
same,Relative activity,[1]; [5],140%
O=S(=O)([O-])[O-].[Fe+2] [FeSO4],Relative activity,[1]; [5],100%
"CCCCCCCCCCCCOS(=O)(=O)[O-].[Na+] [SDS, sodium dodecyl sulfate]",Relative activity,"[1]; 17 mM, pre-incubation 25° C. 30 min, 50 mM Tris-HCl pH 7.0, no addition = 100",9%
same,effect on enzyme activity (in words),[1]; 0.05% SDS,easily denatured
[Cl-].[Cl-].[Zn+2] [ZnCl2],effect on enzyme activity (in words),"[1]; 1 mM, as shown in Table 2",inhibited
same,Relative activity,[1]; [5],80%
"c1cnc2c(c1)ccc1cccnc12 [1,10-phenanthroline]",effect on enzyme activity (in words),"[1]; 1 mM, as shown in Table 2",inhibited
same,Relative activity,[1]; [5],55%
"N=C(N)N [Guanidine hydrochloride, guanidine hydrochloride]",effect on enzyme activity (in words),[1]; 0.5 M,strongly inhibited
same,Relative activity,"[1]; 500 mM, pre-incubation 25° C. 30 min, 50 mM Tris-HCl pH 7.0, no addition = 100",22%
[Cl-].[Cl-].[Mg+2] [MgCl2],effect on enzyme activity (in words),"[1]; 1 mM, as shown in Table 2",inhibited
same,Relative activity,[1]; [5],20%
B1,Specific activity,azocasein [2],"76,000 U/mg"
same,Specific activity,azocasein [2]; listed as Affinity chromatography,"3,400 U/mg"
same,Enzyme activity compared with the enzyme activity (100%) at 50° C.,azocasein [3]; at 40° C.,26%
same,Enzyme activity compared with the enzyme activity (100%) at 50° C.,azocasein [3]; at 60° C.,18%
same,optimal temperature for the activity of the protease,"azocasein [3]; standard assay buffer, 1 h",50 °C
same,optimal pH for the activity of protease,azocasein [3]; various buffers at 50° C.,7.0
same,hydrolysis of the β-chain of fibrin,[4]; after 30 min,partially hydrolyzed
same,hydrolysis of the α-chain of fibrin,[4]; after 1 h,completely hydrolyzed
same,hydrolysis of the γ-γ-chain of fibrin,[4]; after 1 h,completely hydrolyzed
same,hydrolysis of the β-chain of fibrin,[4]; after 2 h,not completely hydrolyzed
same,hydrolysis of the β-chain of fibrin,[4]; after 24 h (data not shown),not completely hydrolyzed
